Laboratory results as given in ChEMBL document CHEMBL1130740, “Sugar-substituted 2-azetidinone cholesterol absorption inhibitors: enhanced potency by modification of the sugar” (1998).

Experiments:
Type in all cases: functional, Cricetulus griseus
Cricetinae gen. sp. [1] = assay: Compound was tested for percent reduction of serum cholesterol absorption in cholesterol fed hamster model at a dose of 3 mg/kg/day
Cricetinae gen. sp. [2] = assay: Compound was tested for percent reduction of liver cholesterol esters absorption in cholesterol fed hamster model at a dose of 3 mg/kg/day
Cricetinae gen. sp. [3] = assay: Dose required to inhibit cholesterol absorption in cholesterol fed hamster model

SMILES | Reduction (Cricetinae gen. sp. [1]) [%] | Reduction (Cricetinae gen. sp. [2]) [%] | ED50 (Cricetinae gen. sp. [3]) [mg/kg/day]
CC(=O)OC[C@H]1O[C@@H](Oc2ccc([C@@H]3[C@@H](CC[C@H](OC(C)=O)c4ccc(F)cc4)C(=O)N3c3ccc(F)cc3)cc2)[C@H](OC(C)=O)[C@@H](OC(C)=O)[C@@H]1OC(C)=O | -14 | -58 | –
O=C1[C@H](CC[C@H](O)c2ccc(F)cc2)[C@@H](c2ccc(O[C@@H]3O[C@H](CO)[C@@H](O[C@@H]4O[C@H](CO)[C@@H](O)[C@H](O)[C@H]4O)[C@H](O)[C@H]3O)cc2)N1c1ccc(F)cc1 | -36 | -90 | 0.01
O=C(O)[C@H]1O[C@@H](Oc2ccc([C@@H]3[C@@H](CC[C@H](O)c4ccc(F)cc4)C(=O)N3c3ccc(F)cc3)cc2)[C@H](O)[C@@H](O)[C@@H]1O | -50 | -95 | 0.17
O=C1[C@H](CC[C@H](O)c2ccc(F)cc2)[C@@H](c2ccc(O)cc2)N1c1ccc(F)cc1 [EZETIMIBE] | -43 | -93 | 0.04
COC(=O)[C@H]1O[C@@H](Oc2ccc([C@@H]3[C@@H](CC[C@H](OC(C)=O)c4ccc(F)cc4)C(=O)N3c3ccc(F)cc3)cc2)[C@H](OC(C)=O)[C@@H](OC(C)=O)[C@@H]1OC(C)=O | -53 | -96 | 0.09
O=C1[C@H](CC[C@H](O)c2ccc(F)cc2)[C@@H](c2ccc(O[C@@H]3O[C@H](CO)[C@@H](O)[C@H](O)[C@H]3O)cc2)N1c1ccc(F)cc1 | -48 | -92 | 0.08
COc1ccc([C@@H]2[C@@H](CCCc3ccccc3)C(=O)N2c2ccc(OC)cc2)cc1 [SCH-48461] | – | – | 2
CC(=O)OC[C@H]1O[C@@H](O[C@H]2[C@H](OC(C)=O)[C@@H](OC(C)=O)[C@H](Oc3ccc([C@@H]4[C@@H](CC[C@H](OC(C)=O)c5ccc(F)cc5)C(=O)N4c4ccc(F)cc4)cc3)O[C@@H]2COC(C)=O)[C@H](OC(C)=O)[C@@H](OC(C)=O)[C@@H]1OC(C)=O | -43 | -75 | –
COC(=O)[C@H]1O[C@@H](Oc2ccc([C@@H]3[C@@H](CC[C@H](O)c4ccc(F)cc4)C(=O)N3c3ccc(F)cc3)cc2)[C@H](O)[C@@H](O)[C@@H]1O | -48 | -89 | 0.04
